According to patent US20260256871A1, “COMPOSITIONS AND METHODS FOR TREATMENT OF SUBJECTS SUFFERING FROM A SARS-COV-2 INFECTION” (priority 2022, published 2026):
Entries after “also recorded” stand apart in the source; their conditions may differ. Counter-ions that a name gives are not always drawn. Like-named read-outs stand apart in the source and are kept apart here.

Experiments:
SARS-CoV2 [1] = type: cell-based; details: for viral load: antioxidants NAC and SFN; for inhibition of SARS-CoV2 replication in HBECs (viral copy number): camostat basolateral
16HBE cells = assay: Cytotoxicity, CytoTox 96 LDH release assay; details: for cytotoxicity (LDH release) at maximum concentration used in antiviral assays: 72 h, camostat 125 μM, HA 0.7%, BAPTA-AM 10 uM, allopurinol 400 μM, NAC 100 mM, SFN 10 μM, ivacaftor, PAAG at maximum; for toxicity values (percent of maximum toxicity): Allopurinol 400 uM, NAC 50 mM, SFN 5 uM, 72 hours
cells = details: due to the very low pH; cited from earlier work
SARS-CoV2 [2] = assay: Protection against SARS-CoV2 in Vero cells; type: cell-based

CC(C)(C)c1cc(C(C)(C)C)c(NC(=O)c2c[nH]c3ccccc3c2=O)cc1O [Ivacaftor, ivacaftor]
effect on SARS-CoV-2 replication (SARS-CoV2 [1]; ivacaftor basolateral, ≥10 μM, close to its maximum solubility): moderate effect
cytotoxicity (LDH release) at maximum concentration used in antiviral assays (16HBE cells): showed cytotoxicity

CC(=O)N[C@@H](CS)C(=O)O [NAC, N-Acetyl-L-cysteine]
viral load (SARS-CoV2 [1]): reduction in the viral load
cytotoxicity (LDH release) at maximum concentration used in antiviral assays (16HBE cells): neither allopurinol, NAC nor SFN showed cytotoxicity
toxicity values (percent of maximum toxicity) (16HBE cells): negative values of toxicity

C[S+]([O-])CCCCN=C=S (stereo not shown) [SFN, sulforaphane]
viral load (SARS-CoV2 [1]): reduction in the viral load
cytotoxicity (LDH release) at maximum concentration used in antiviral assays (16HBE cells): neither allopurinol, NAC nor SFN showed cytotoxicity
toxicity values (percent of maximum toxicity) (16HBE cells): negative values of toxicity

Oc1ncnc2[nH]ncc12 [allopurinol]
protection of HBECs from SARS-CoV2 infection (replication) (SARS-CoV2 [1]; allopurinol 400 uM, xanthine oxidase inhibition): significantly protected; also recorded: significantly blocks SARS-CoV2 replication
cytotoxicity (LDH release) at maximum concentration used in antiviral assays (16HBE cells): neither allopurinol, NAC nor SFN showed cytotoxicity
toxicity values (percent of maximum toxicity) (16HBE cells): negative values of toxicity

O=C1O[C@H]([C@@H](O)CO)C(O)=C1O [ascorbic acid]
cytotoxicity of component alone (without bicarbonate buffer) (cells): cytotoxic

O=C([O-])O.[Na+] [bicarbonate alone, sodium bicarbonate]
antiviral activity of ARINA-1 components (SARS-CoV2 [1]): did not show significant activity

CN(C)C(=O)COC(=O)Cc1ccc(OC(=O)c2ccc(NC(=N)N)cc2)cc1 [camostat mesylate]
inhibition of SARS-CoV2 replication in HBECs (viral copy number) (SARS-CoV2 [1]; vs DMSO vehicle, 72 h): dose-dependent manner
inhibition of SARS-CoV2 replication in HBECs (viral copy number) (SARS-CoV2 [1]; vs DMSO vehicle, 72 h, listed as Camostat): significantly inhibited
inhibition of SARS-CoV2 infection (SARS-CoV2 [1]; camostat mesylate basolateral, concentrations higher than 16.62 μM, vs DMSO vehicle, 72 h): ~100%
cytotoxicity (LDH release) at maximum concentration used in antiviral assays (16HBE cells): not toxic
protection against SARS-CoV2 (SARS-CoV2 [2]): partially protective

N[C@@H](CCC(=O)N[C@@H](CS)C(=O)NCC(=O)O)C(=O)O [glutathione]
cytotoxicity of component alone (without bicarbonate buffer) (cells): cytotoxic
